Assay results taken from US20240270692A1, “S(+) FORM OF 4-(2,4-DIFLUOROPHENYL)-2-(1H-INDOL-3-YL)-4-OXO-BUTANOIC ACID” (TOHOKU UNIVERSITY, priority 2021, published 2024).

Key:
[1] = In vivo administration test 2: oral administration, plasma concentrations; details: male cynomolgus monkeys, single dose 100 mg/kg
Protocol: Each enantiomer (S(+) form or R(−) form) of MA5 was dissolved in a mixed solution of physiological saline and 0.1 N sodium hydroxide (9:1), and filtered and sterilized by using a 0.22 μm filter to prepare a solution containing 2 mL/kg of each enantiomer of MA5. Next, the solution containing each enantiomer of MA5 was intravenously administered to each of three 4- to 5-year-old male cynomolgus monkeys at a single dose of 1 mg/kg. As a control, a solution containing no enantiomer of MA5 was also administered in the same manner. […] The analysis conditions for LC-MS/MS are as follows.
As an ionization unit, an apparatus in which NANOSPACESI-2 (manufactured by OSAKA SODA CO., LTD.) as a high-performance liquid chromatograph was connected to a triple quadrupole mass spectrometer (TSQ Quantum Ultra, manufactured by Thermo Fisher Scientific Inc.) equipped with an ESI probe was used. The S(+) form of MA5 (S-(+)-MA5) and the R(−) form of MA5 (R-(−)-MA5), which are substances to be analyzed, were subjected to quantitative analysis by the internal standard method using their respective stable isotopes S-(+)-MA5-d6 and R-(−)-MA5-d6. […]
The MS conditions were detected in negative ion mode, a spray voltage set to 2.5 kV, a vaporizer temperature set to 250° C., and an ion transfer tube temperature set to 250° C. […] Waveform analysis and quantitative calculation by the internal standard method were carried out by using Xcalibur (manufactured by Thermo Fisher Scientific Inc.).
In “3. […] Specifically, according to the method described in “3-1 Method” above, a solution containing each enantiomer (S(+) form or R(−) form) of MA5 was orally administered to male cynomolgus monkeys at a single dose of 100 mg/kg, the concentration of each enantiomer of MA5 and the concentration of a reduced metabolite of each enantiomer of MA5 (the compound represented by formula (B) [that is, Red-MA5]) in plasma were measured.

MT-ND3 mutant cell line = assay: Evaluation of ability to produce ATP in animal cells; format: cell-based, human; details: 0.1 μM or 1 μM, cultured 6 hours, S(+) form versus R(−) form
Protocol: (§1) Hereinafter, the present invention will be described more specifically with reference to Examples, but the technical scope of the present invention is not limited to these Examples. The INS-1E cell line was cultured in an incubator (37° C., 21% O2, 5% CO2) in the presence of RPMI-1640 Medium (manufactured by GIBCO) containing 11.1 mM glucose, 10% FBS, 1 mM sodium pyruvate, 10 mM HEPES, 2 mM glutamine, 50 μM β-mercaptoethanol, penicillin at 100 U/mL, and streptomycin at 100 μg/mL (hereinafter simply referred to as “RPMI-1640 Medium”). […]
An MT-ND3 mutant cell line was seeded in a 96-well plate at 2×10^3 cells per well and cultured for 24 hours in the presence of DMEM Low Glucose culture medium, then 0.1% DMSO, which is a solvent for the compounds, or various concentrations (0.1 μM or 1 μM) of three compounds (racemic form of MA5, S(+) form of MA5, or R(−) form of MA5) were added, and the cells were cultured for 6 hours, and then the concentration of ATP produced in the culture medium was measured with GloMa 96 Microplate Luminometer (Promega Corporation) by using a “cellular” ATP measurement reagent (manufactured by TOYO B-Net Co., Ltd.).

HBlEpC cell line = assay: Cytotoxicity evaluation 1: viable cell level by WST-8 assay; format: cell-based, human; details: 30 nM to 1 mM, cultured 48 hours
Protocol: as §1
An HBlEpC cell line (manufactured by Cell Application) was seeded in a 96-well plate at 2×10^3 cells per well, 0.1% DMSO, which is a solvent for the compounds, or various concentrations (30 NM, 100 nM, 300 nM, 1 μM, 3 μM, 10 μM, 30 μM, 100 μM, 300 μM, or 1 mM) of three compounds (racemic form of MA5, S(+) form of MA5, or R(−) form of MA5) were added to the HBlEpC culture medium, and the cells were cultured for 48 hours. […] The viable cell level (viable cell count level) after culture was measured by a WST-8 assay using Cell Count Reagent SF (manufactured by Nacalai Tesque, Inc.).

Structure (SMILES) | reduced metabolite (Red-MA5) in plasma [1] | level of ATP production (MT-ND3 mutant cell line) | viability of the cells (viable cell level, OD450) (HBlEpC cell line) | concentration in plasma after oral administration [1]
O=C(C[C@@H](C(=O)O)c1c[nH]c2ccccc12)c1ccc(F)cc1F [R(−) form of MA5, 4-(2,4-difluorophenyl)-2-(1H-indol-3-yl)-4-oxo-butanoic acid] | detected | No difference was observed | the viability of the cells was higher than when the HBlEpC cell line was cultured in the presence of the racemic form of MA5 | –
O=C(C[C@H](C(=O)O)c1c[nH]c2ccccc12)c1ccc(F)cc1F [S(+) form of MA5, 4-(2,4-difluorophenyl)-2-(1H-indol-3-yl)-4-oxo-butanoic acid] | almost no reduced metabolite was detected | No difference was observed | the viability of the cells was higher with the S(+) form of MA5 than with the R(−) form of MA5 | higher than that of the R(−) form of MA5 in plasma
